Laboratory results: ChEMBL document CHEMBL4699534, “Optimizing PEG-Extended Apelin Analogues as Cardioprotective Drug Leads: Importance of the KFRR Motif and Aromatic Head Group for Improved Physiological Activity” (J Med Chem, 2020)
Non-standard residues stand in square brackets, D forms with d. Residues, ends and D or L forms follow the SMILES beside them. *: point of attachment. Phe(4-Br) = N[C@@H](Cc1ccc(Br)cc1)C(=O)O; PEG7 = NCCOCCOCCOCCOCCOCCOCCOCCC(=O)O; Fmoc = O=C(OCC1c2ccccc2-c2ccccc21)*; NMeL = CN[C@@H](CC(C)C)C(=O)O; Nle = CCCC[C@H](N)C(=O)O; Aib = CC(C)(N)C(=O)O

What was measured:
[1] = Half life in human plasma at 400 uM by HPLC analysis; format: ADME, cell-free
[2] = Half life in mouse plasma at 400 uM by HPLC analysis; format: ADME, cell-free
[3] = biological target: T1, Apelin receptor (Homo sapiens, UniProt P35414); test: Activation of APJ receptor (unknown origin) expressed in Chem-5 cells assessed as stimulation of Ca2+ mobilization by Calcium 6-GF dye based fluorescence based assay; format: functional, cell-based
T1 sequence (P35414 whole entry): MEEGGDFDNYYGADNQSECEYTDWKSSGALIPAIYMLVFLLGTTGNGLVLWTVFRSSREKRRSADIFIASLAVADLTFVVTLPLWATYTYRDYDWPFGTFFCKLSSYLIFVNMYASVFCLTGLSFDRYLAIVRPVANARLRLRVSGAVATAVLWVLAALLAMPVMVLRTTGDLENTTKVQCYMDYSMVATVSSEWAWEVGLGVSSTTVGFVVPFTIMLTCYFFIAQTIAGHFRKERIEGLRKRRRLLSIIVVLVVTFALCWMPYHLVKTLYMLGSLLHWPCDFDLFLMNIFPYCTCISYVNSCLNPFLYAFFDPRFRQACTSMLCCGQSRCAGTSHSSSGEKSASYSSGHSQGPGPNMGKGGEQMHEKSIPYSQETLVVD

[4] = biological target: T2, Apelin receptor (Rattus norvegicus, UniProt Q9JHG3); test: Displacement of [125I]-pyr-1-apelin-13 from EGFP-tagged wild-type rat apelin receptor expressed in CHO cell membranes by gamma counting method; design: species or system Cell membrane
T2 sequence (Q9JHG3 whole entry): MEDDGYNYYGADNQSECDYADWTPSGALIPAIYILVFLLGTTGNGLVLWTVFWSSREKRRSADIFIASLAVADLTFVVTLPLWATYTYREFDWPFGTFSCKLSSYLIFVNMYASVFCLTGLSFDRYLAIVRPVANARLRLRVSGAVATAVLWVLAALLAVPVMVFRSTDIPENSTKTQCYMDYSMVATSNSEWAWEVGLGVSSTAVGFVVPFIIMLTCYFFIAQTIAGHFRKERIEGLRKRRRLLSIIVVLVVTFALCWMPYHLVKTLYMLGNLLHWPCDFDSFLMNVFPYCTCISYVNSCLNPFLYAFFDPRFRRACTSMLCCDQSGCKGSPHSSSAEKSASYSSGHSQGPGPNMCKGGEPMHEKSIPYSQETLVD

[5] = system: Mus musculus; test: Cardioprotective activity in C57BL/6 mouse assessed as reduction in mean arterial blood pressure at 1.4 uM/kg, iv measured after 15 mins relative to control; format: functional; conditions: 0.25 h
[6] = Protein binding in 55% human plasma at 100 uM incubated for 3 hrs by LC/MS detection based equilibrium dialysis; format: ADME, cell-free; conditions: 55% plasma, read-out: PPB (converted)
[7] = Protein binding in 55% mouse plasma at 100 uM incubated for 3 hrs by LC/MS detection based equilibrium dialysis; format: ADME, cell-free; conditions: 55% plasma, read-out: PPB (converted)
[8] = Lipophilicity, log D of the compound in pH 7.4 PBS by LC/MS detection based shake flask assay; format: physicochemical
[9] = system: Heart; test: Cardioprotective activity in mouse Langendorff heart perfusion and ischemia-reperfusion injury model assessed as left ventricle developed pressure at 1 uM dosed at start of reperfusion for 10 mins; format: functional
[10] = system: Heart; test: Cardioprotective activity in mouse Langendorff heart perfusion and ischemia-reperfusion injury model assessed as maximum derivative of change in systolic blood pressure over time at 1 uM dosed at start of reperfusion for 10 mins; format: functional

## CCCC[C@H](NC(=O)[C@@H]1CCCN1C(=O)CNC(=O)[C@H](CCCCN)NC(=O)[C@H](Cc1c[nH]cn1)NC(=O)[C@H](CO)NC(=O)[C@H](CC(C)C)N(C)C(=O)[C@H](CCCNC(=N)N)NC(=O)[C@@H]1CCCN1C(=O)[C@H](CCCNC(=N)N)NC(=O)[C@H](CCC(N)=O)NC(=O)[C@H](CCCNC(=N)N)NC(=O)[C@H](CCCNC(=N)N)NC(=O)[C@H](Cc1ccccc1)NC(=O)[C@H](CCCCN)NC(=O)CCOCCOCCOCCOCCOCCOCCOCCNC(=O)OCC1c2ccccc2-c2ccccc21)C(=O)NC(C)(C)C(=O)N[C@@H](Cc1ccc(Br)cc1)C(=O)O ({Fmoc-PEG7}-KFRRQRPR[NMeL]SHKGP[Nle][Aib][Phe(4-Br)]-OH)
[1]
  half-life at 400 µM: 1620 min
[2]
  half-life at 400 µM: 168 min
[3]
  EC50: 2.51 nM
[4]
  IC50: 0.55 nM
[5]
  Activity: 47 mmHg
[6]
  fraction unbound at 3 h, 100 µM: 0.06
[7]
  fraction unbound at 3 h, 100 µM: 0.11
[8]
  logD: -1.45
[9]
  Activity: 90 mmHg
[10]
  dP/dt max: 2050 mmHg/s
